Consider eight compounds from patent US6825191B2, “Benzodiazepine derivatives” (Ajinomoto Co., Inc., priority 2000, dated 2004).

Assay [1] concerns the target T1, activated human blood coagulation factor X (Homo sapiens, UniProt P00742).
T1 construct: purchased Enzyme Research Co
Put plainly: Determination of activity of inhibiting the activated blood-coagulation factor X (chromogenic substrate, initial rate). The settings on record: negative logarithm of concentration inhibiting 50% of initial rate, tris hydrochloride buffer pH 8.4, room temperature; for IC50: read-out: Activity of inhibiting activated blood coagulation factor X (pIC50) (converted). In kind it is biochemical. On the procedure: Determination of Activity of inhibiting the Activated Blood-coagulation Factor X
130 μl of 100 mM tris hydrochloride buffer adjusted to pH 8.4 was added to 10 μl of an aqueous solution of a compound to be tested. Then 10 μl of a 0.5 unit/ml solution of activated human blood coagulation factor X (a product of Enzyme Research Co.) in tris hydrochloride buffer of pH 8.4 was added to the resultant mixture. After the incubation at room temperature for 10 minutes, 50 μl of a solution of N-benzoyl-L-isoleucyl-L-glutamyl-glycyl-L-arginyl-P-nitroanilide hydrochloride (a product of Peptide Institute Inc.) adjusted to 0.8 mM with tris hydrochloride (pH 8.4) was added thereto. The a absorbance was determined and then the initial reaction rate was determined. A control was prepared in the same manner as that described above except that the solution of the compound to be tested was replaced with 10 μl of tris hydrochloride buffer adjusted to pH 8.4. The absorbance was determined with MICROPLATE READER Model 3550-UV (a product of BIO RAD) at a wave length of 405 nm at intervals of 15 seconds for 16 minutes.

The target of the next assay is T2, human thrombin (Homo sapiens, UniProt P00734).
T2 construct: solution of human thrombin (a product of SIGMA Co.); purchased SIGMA Co
Put plainly: Determination of thrombin-inhibiting activity (chromogenic substrate S-2238, initial rate). The class given is biochemical. The conditions noted are these: negative logarithm of concentration inhibiting 50% of initial rate, tris hydrochloride buffer pH 8.4, room temperature; for IC50: read-out: Thrombin-inhibiting activity (pIC50) (converted). On the procedure:
Determination of Thrombin-inhibiting Activity
130 μL of 100 mM tris hydrochloride buffer adjusted to pH 8.4 was added to 10 μl of an aqueous solution of a test compound. Then 10 μl of a solution of human thrombin (a product of SIGMA Co.) adjusted to 2 units/ml with tris hydrochloride buffer of pH 8.4 was added to the resultant mixture. After the incubation at room temperature for 10 minutes, 50 μl of a solution of D-phenylalanine-L-pipecolyl-L-arginine-P-nitroanilide dihydrochloride (S-2238; a product of Daiichi Kagaku Yakuhin Co.) adjusted to 0.4 mM with tris hydrochloride buffer of pH 8.4 was added thereto. The absorbance was determined and then the initial reaction rate was determined. A control was prepared in the same manner as that described above except that the solution of the compound to be tested was replaced with 10 μl of tris hydrochloride buffer adjusted to pH 8.4. The absorbance was determined with MICROPLATE READER Model 3550-UV (a product of BIO RAD) at a wave length of 405 nm at intervals of 15 seconds for 16 minutes. The negative logarithm (pIC50) of a concentration of the test compound which inhibits 50% of the activity (initial rate) of the thrombin in the absence of the test compound was determined, and employed as the index of the activity of inhibiting thrombin.

The next assay concerns blood plasma. In words: Determination of blood anticoagulating activity by prothrombin time (PT) determination method. The class given is biochemical, human. The settings on record: negative logarithm of concentration which elongated PT of the control to twice as long; blood plasma of healthy people. As to the method: Determination of Blood Anticoagulating Activity
The blood anticoagulating activity was determined by a prothrombin time (PT) determination method. The PT was determined as follows: The blood was taken from healthy people. 3.8% aqueous trisodium citrate solution was added to the blood in a volume ratio of 1:10. The blood plasma was separated by the centrifugation. 5 μl of DMSO solution containing a test compound was added to 45 μl of the blood plasma. After the incubation apt room temperature for 2 minutes, a test tube containing the blood plasma solution was placed in Sysmex CA-3000 fully automatic blood coagulation determination device (a product of Toa Medical Electronics Co., Ltd), and incubated at 37° C. for 3 minutes. 100 μl of Sysmex PT II (rabbit brain tissue thromboplastin, 13.2 mM calcium chloride; a product of Toa Medical Electronics Co., Ltd) was fed into the test tube. PT was automatically determined with the device. A sample containing 5 μl of DMSO in place of the solution of the test compound was used as the control. The negative logarithm (pPT2) of the concentration of the test compound which elongated PT of the control to the twice as long was determined, and employed as the index of the blood anticoagulating activity.

T1 sequence (P00742 235-488 limits assumed): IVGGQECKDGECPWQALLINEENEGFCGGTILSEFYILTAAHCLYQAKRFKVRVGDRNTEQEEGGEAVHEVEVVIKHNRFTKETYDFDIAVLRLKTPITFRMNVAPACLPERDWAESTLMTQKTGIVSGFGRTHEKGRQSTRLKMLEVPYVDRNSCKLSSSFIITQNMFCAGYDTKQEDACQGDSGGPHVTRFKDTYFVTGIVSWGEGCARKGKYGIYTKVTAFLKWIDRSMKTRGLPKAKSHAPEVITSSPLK
T1 sequence (P00742 41-179 partner limits assumed): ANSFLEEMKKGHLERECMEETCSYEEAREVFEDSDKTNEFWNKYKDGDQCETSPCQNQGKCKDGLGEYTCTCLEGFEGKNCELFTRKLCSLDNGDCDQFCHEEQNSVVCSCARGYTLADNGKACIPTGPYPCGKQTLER

In the case of `CN1CCN=C1c1ccc(CN2C(=O)CN(C(=O)c3ccc(Cl)cc3)Cc3ccc(C(=O)O)cc32)cc1.O=C(O)C(F)(F)F` [Compd. of Ex. 203, 4-(4-chlorobenzoyl)-2-oxo-1-[4-(1-methyl-4,5-dihydro-1H-imidazol-2-yl)benzyl]-2,3,4,5-tetrahydro-1H-benzoyl[e][1,4]-diazepine-8-carboxylic acid trifluoroacetate], the “Activity of inhibiting activated blood coagulation factor X (pIC50)” value in assay [1] amounted to 7.1. At human thrombin, the “Thrombin-inhibiting activity (pIC50)” value is on record as <4.0. Besides, the “Human blood anticoagulating activity (pPT2)” value with blood plasma came out at 5.5.

For the compound `CN1CC[N+](C)=C1c1ccc(CN2C(=O)CN(C(=O)c3ccc(Cl)cc3)Cc3c(Cl)cccc32)cc1.O=C([O-])C(F)(F)F` [Compd. of Ex. 207, 6-chloro-4-(4-chlorobenzoyl)-1-[4-(1,3-dimethyl-4,5-dihydro-1H-imidazol-3-ium-2-yl)benzyl]-1,3,4,5-tetrahydro-benzo[e][1,4]diazepin-2-on trifluoroacetate], the IC50 in assay [1] was 31.6 nM; at human thrombin, > 100000 nM. The “Human blood anticoagulating activity (pPT2)” value in the assay with blood plasma was 5.7.

As for “4-(4-chlorobenzoyl)-1-[4-(1-acetoimidoyl)-4-piperidyloxy]benzyl]-1,3,4,5-tetrahydrobenzo[e][1,4]diazepin-2-on trifluoroacetate [Compd. of Ex. 27]”, the “Activity of inhibiting activated blood coagulation factor X (pIC50)” value in assay [1] is 6.4. Besides, on human thrombin, the “Thrombin-inhibiting activity (pIC50)” value is on record as <4.0. In the assay with blood plasma, the “Human blood anticoagulating activity (pPT2)” value was found to be 4.8.

As for `O=C(O)C(F)(F)F.O=C(c1ccc(Cl)cc1)N1CC(=O)N(CC2CCN(c3ccncc3)CC2)c2ccccc2C1` [Compd. of Ex. 2, 4-(4-chlorobenzoyl)-1-[1-(4-pyridyl)-4-piperidylmethyl]-1,3,4,5-tetrahydrobenzo[e][1,4]diazepin-2-on trifluoroacetate], the IC50 in assay [1] was 398 nM; at human thrombin it was > 100000 nM. Besides, in the assay with blood plasma, the “Human blood anticoagulating activity (pPT2)” value worked out at 4.9.

`O=C(O)C(F)(F)F.O=C(c1ccc(CN2C(=O)CN(C(=O)c3ccc(Cl)cc3)Cc3ccccc32)nc1)N1CC=CC1` [Compd. of Ex. 181, 4-(4-chlorobenzoyl)-1-[(5-(2,5-dihydro-1H-pyrrol-1-ylcarbonyl)-2-pyridinyl)methyl]-1,3,4,5-tetrahydrobenzo[e][1,4]-diazepin-2-on trifluoroacetate]: the IC50 in assay [1] was 79.4 nM; at human thrombin it was > 100000 nM. Also, the “Human blood anticoagulating activity (pPT2)” value in the assay with blood plasma was found to be 5.3.

On to `CN1CCN=C1c1ccc(CN2C(=O)CN(C(=O)c3ccc(Cl)cc3)Cc3ccc(CCC(=O)N4CCOCC4)cc32)cc1.O=C(O)C(F)(F)F` [Compd. of Ex. 144, 4-(4-chlorobenzoyl)-1-[4-(1-methyl-4,5-dihydro-1H-imidazol-2-yl)benzyl]-8-[3-(4-morpholinyl)-3-oxopropyl]-1,3,4,5-tetrahydrobenzo[e][1,4]diazepin-2-on mono(trifluoroacetate)], for which the IC50 is 200 nM in assay [1] and 79400 nM at human thrombin. Also, in the assay on blood plasma, the “Human blood anticoagulating activity (pPT2)” value amounted to 5.6.

For `CC(C)N1CCN(C(=O)CCc2ccc3c(c2)N(Cc2ccc(C(=O)N4CC=CC4)cc2)C(=O)CN(C(=O)c2ccc(Cl)cc2)C3)CC1.O=C(O)C(F)(F)F` [Compd. of Ex. 115, 4-(4-chlorobenzoyl)-1-[4-(2,5-dihydro-1H-pyrrol-1-ylcarbonyl)benzyl]-8-[3-(4-isopropyl-1-piperazinyl)-3-oxo-propyl]-1,3,4,5-tetrahydrobenzo[e][1,4]diazepin-2-on trifluoroacetate], the IC50 in assay [1] is 63.1 nM; on human thrombin, 39800 nM. Moreover, the “Human blood anticoagulating activity (pPT2)” value in the assay with blood plasma is given as 5.4.

On to `O=C(c1ccc(CN2C(=O)CN(C(=O)c3ccc(Cl)cc3)Cc3ccc(CCP(=O)(O)O)cc32)cc1)N1CC=CC1` [Compd. of Ex. 73, [2-(4-(4-chlorobenzoyl)-2-oxo-1-[4-(2,5-dihydro-1H-pyrrol-1-ylcarbonyl)benzyl]-2,3,4,5-tetrahydro-1H-benzo[e][1,4]-diazepin-8-yl)ethyl]phosphonic acid], for which the values for the IC50 (in assay [1]; at human thrombin) were 7.94 nM and 39800 nM, respectively. The “Human blood anticoagulating activity (pPT2)” value in the assay on blood plasma worked out at 4.9.
